Tests used:
Test in all cases: relative viability (nuclei count vs DMSO), 5 days (fraction); higher = more cells survive
Olaparib + Alpelisib = compound: O=C(c1cc(Cc2n[nH]c(=O)c3ccccc23)ccc1F)N1CCN(C(=O)C2CC2)CC1 [Olaparib] + Cc1nc(NC(=O)N2CCC[C@H]2C(N)=O)sc1-c1ccnc(C(C)(C)C(F)(F)F)c1 [Alpelisib] (partner 2 µM)
Procedure, shortened: (§1)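 Lung cancer cell lines in 1536-well plates got either a single drug or a fixed anchor-drug dose together with five library-drug doses (not always all listed) in √10 steps, by pin tool, on the day after seeding. Nuclei were counted after 5 days, and relative viability is the treated-to-vehicle ratio of nuclei counts. Values are medians of duplicate plates.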

Crizotinib + Foretinib = compound: C[C@@H](Oc1cc(-c2cnn(C3CCNCC3)c2)cnc1N)c1c(Cl)ccc(F)c1Cl [Crizotinib] + COc1cc2c(Oc3ccc(NC(=O)C4(C(=O)Nc5ccc(F)cc5)CC4)cc3F)ccnc2cc1OCCCN1CCOCC1 [Foretinib] (partner 0.25 µM)
Procedure, shortened: as §1

Carfilzomib + OSI-027 = compound: CC(C)C[C@H](NC(=O)[C@H](CCc1ccccc1)NC(=O)CN1CCOCC1)C(=O)N[C@@H](Cc1ccccc1)C(=O)N[C@@H](CC(C)C)C(=O)[C@@]1(C)CO1 [Carfilzomib] + COc1cccc2cc(-c3nc([C@H]4CC[C@H](C(=O)O)CC4)n4ncnc(N)c34)[nH]c12 [OSI-027] (partner 0.5 µM)
Procedure, shortened: as §1

Olaparib + Decitabine = compound: O=C(c1cc(Cc2n[nH]c(=O)c3ccccc23)ccc1F)N1CCN(C(=O)C2CC2)CC1 [Olaparib] + Nc1ncn([C@H]2C[C@H](O)[C@@H](CO)O2)c(=O)n1 [Decitabine] (partner 2 µM)
Procedure, shortened: as §1

Cell Line | relative viability (Olaparib + Alpelisib; first compound 0.08 µM) | relative viability (Olaparib + Alpelisib; first compound 0.253 µM) | relative viability (Olaparib + Alpelisib; first compound 2.53 µM) | relative viability (Olaparib + Alpelisib; first compound 8 µM) | relative viability (Crizotinib + Foretinib; first compound 0.01 µM) | relative viability (Crizotinib + Foretinib; first compound 0.03162 µM) | relative viability (Crizotinib + Foretinib; first compound 0.1 µM) | relative viability (Crizotinib + Foretinib; first compound 0.3162 µM) | relative viability (Crizotinib + Foretinib; first compound 1 µM) | relative viability (Carfilzomib + OSI-027; first compound 0.001 µM) | relative viability (Carfilzomib + OSI-027; first compound 0.003162 µM) | relative viability (Carfilzomib + OSI-027; first compound 0.01 µM) | relative viability (Carfilzomib + OSI-027; first compound 0.03162 µM) | relative viability (Carfilzomib + OSI-027; first compound 0.1 µM) | relative viability (Olaparib + Decitabine; first compound 0.08 µM) | relative viability (Olaparib + Decitabine; first compound 0.253 µM) | relative viability (Olaparib + Decitabine; first compound 2.53 µM) | relative viability (Olaparib + Decitabine; first compound 8 µM)
NCI-H1666 | 1.01 | 0.945 | 0.844 | 0.676 | 0.921 | 0.969 | 0.99 | 0.964 | 0.955 | 0.807 | 0.87 | 0.955 | 0.749 | 0.383 | 0.778 | 0.604 | 0.636 | 0.597
NCI-H1734 | 0.669 | 0.612 | 0.623 | 0.519 | 0.811 | 0.847 | 0.753 |  | 0.805 | 0.62 | 0.683 | 0.585 | 0.222 | 0.138 | 0.418 | 0.311 | 0.237 | 0.229
NCI-H1755 | 1.05 | 0.867 | 0.898 | 0.841 | 0.835 | 0.923 | 0.887 | 0.877 | 0.891 | 0.707 | 0.777 | 0.746 | 0.65 | 0.25 | 0.666 | 0.621 | 0.577 | 0.562
NCI-H1915 | 0.986 | 0.938 | 0.767 | 0.59 | 1 | 1.1 | 1.07 |  | 1.08 | 0.596 | 0.654 | 0.59 | 0.457 | 0.0943 | 0.242 | 0.239 | 0.234 | 0.196
NCI-H1944 | 0.881 | 0.743 | 0.699 | 0.717 | 0.823 | 0.877 | 0.847 | 0.884 | 0.862 | 0.389 | 0.489 | 0.474 | 0.46 | 0.173 | 0.397 | 0.401 | 0.336 | 0.273
NCI-H1975 | 0.764 | 0.594 | 0.692 | 0.612 | 0.941 | 1.03 | 0.902 | 0.962 | 0.975 |  | 0.715 | 0.503 | 0.0875 | 0.106 | 0.339 | 0.312 | 0.331 | 0.248
NCI-H1993 | 0.691 | 0.657 | 0.746 | 0.742 | 0.848 | 0.9 | 0.741 | 0.827 | 0.82 | 0.573 | 0.569 | 0.576 | 0.443 | 0.459 | 0.512 | 0.59 | 0.666 | 0.636
NCI-H2009 | 1.28 | 1.03 | 1.09 | 0.976 | 1.21 | 1.17 | 1.13 | 1.19 | 1.23 | 0.758 | 0.778 | 0.631 | 0.111 | 0.0867 | 0.391 | 0.336 | 0.337 | 0.32
NCI-H2023 | 0.64 | 0.512 | 0.58 | 0.501 | 0.745 | 0.799 | 0.787 | 0.848 | 0.939 | 0.386 | 0.435 | 0.467 | 0.147 | 0.0792 | 0.172 | 0.143 | 0.135 | 0.126
NCI-H2085 | 1.08 | 0.883 | 0.92 | 0.835 | 0.822 | 0.809 | 0.906 |  | 0.987 | 0.59 | 0.799 | 0.64 | 0.264 | 0.27 | 0.545 | 0.49 | 0.43 | 0.46
NCI-H2087 | 1.21 | 0.95 | 1.02 | 0.706 | 1.12 | 1.12 | 1.03 |  | 1.24 | 0.593 | 0.636 | 0.302 | 0.0521 | 0.0683 | 0.249 | 0.189 | 0.262 | 0.167
NCI-H2126 | 0.794 | 0.743 | 0.712 | 0.728 | 1.03 | 1.18 | 1.12 | 1.1 | 1.18 | 0.721 | 0.707 | 0.76 | 0.726 | 0.331 | 0.614 | 0.544 | 0.541 | 0.542
NCI-H2170 | 0.846 | 0.838 | 0.849 | 0.718 | 0.965 | 0.991 | 0.999 | 1.02 | 1.01 | 0.643 | 0.696 | 0.792 | 0.72 | 0.271 | 0.422 | 0.369 | 0.277 | 0.253
NCI-H2347 | 1.11 | 0.978 | 0.932 | 0.783 | 0.689 | 0.918 | 1.03 | 0.656 | 1.06 | 0.415 |  | 0.366 | 0.26 | 0.217 | 0.644 | 0.558 | 0.531 | 0.516
NCI-H2405 | 1.01 | 0.816 | 0.728 | 0.73 | 1.02 | 1.06 | 1.05 | 1.09 | 1.06 |  | 0.667 | 0.651 | 0.507 | 0.305 | 0.681 | 0.55 | 0.458 | 0.486

From the supplement of paper PMC10307832
